The target of data set [1] is T1, recombinant human NK2 receptor (Homo sapiens, UniProt P21452).
T1 sequence (P21452 1-398): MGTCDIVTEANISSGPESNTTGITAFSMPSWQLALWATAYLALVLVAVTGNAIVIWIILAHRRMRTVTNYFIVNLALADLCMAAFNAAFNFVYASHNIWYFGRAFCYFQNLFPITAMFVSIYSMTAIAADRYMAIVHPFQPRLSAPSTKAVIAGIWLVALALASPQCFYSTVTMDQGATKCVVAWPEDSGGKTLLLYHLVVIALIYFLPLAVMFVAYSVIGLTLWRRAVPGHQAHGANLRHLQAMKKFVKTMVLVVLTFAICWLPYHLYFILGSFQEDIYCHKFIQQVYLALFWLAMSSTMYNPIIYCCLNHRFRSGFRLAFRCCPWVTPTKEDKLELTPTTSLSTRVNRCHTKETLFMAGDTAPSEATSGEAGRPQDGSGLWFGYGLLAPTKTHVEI
Put plainly: Radioligand binding, recombinant human NK2 receptor.

A further data set can be described thus: Aqueous solubility. The class given is physicochemical. As to conditions: water.
A further data set deals with T2, central NK1Rs (Meriones unguiculatus, UniProt Q5DUB1).
T2 construct: antagonize central NK1Rs in vivo; from tissue; host or cells: brain of living Mongolian gerbils (in vivo)
T2 sequence (Q5DUB1 whole entry): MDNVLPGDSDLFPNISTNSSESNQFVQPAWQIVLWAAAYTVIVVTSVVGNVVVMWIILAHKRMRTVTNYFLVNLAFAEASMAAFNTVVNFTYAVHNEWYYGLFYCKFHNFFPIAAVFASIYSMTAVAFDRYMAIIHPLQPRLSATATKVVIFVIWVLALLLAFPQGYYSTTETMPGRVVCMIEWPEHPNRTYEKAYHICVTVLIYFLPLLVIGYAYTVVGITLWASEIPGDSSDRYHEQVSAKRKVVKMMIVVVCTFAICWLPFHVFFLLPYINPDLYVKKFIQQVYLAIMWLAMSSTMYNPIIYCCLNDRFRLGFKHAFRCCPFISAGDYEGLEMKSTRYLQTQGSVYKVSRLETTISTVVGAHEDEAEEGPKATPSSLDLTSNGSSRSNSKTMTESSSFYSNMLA
Put plainly: Gerbil foot-tapping response induced by icv GR73632. The class given is in vivo, Mongolian Gerbils. The source says:
The ability of EUC-001 to antagonize central NK1Rs in vivo was examined using the gerbil foot-tapping response. The hind-foot-tapping response is a species-specific, CNS-mediated reaction that occurs in response to fear-evoking situations or aversive stimuli. The same, stereotyped response can be induced by the intracerebroventricular (icv) injection of a selective NK1 receptor agonist, such as GR73632 [59]. In turn, this NK1R-mediated response can be inhibited by centrally acting NK1R antagonists, as well as other anxiolytic agents. Animals were pretreated with a range of concentrations of EUC-001 2 h prior to the icv administration of the NK1R agonist, GR73632.
Female Mongolian Gerbils weighing 30–60 g were administered drug vehicle or a predetermined dose of EUC-001 either orally (po) at a volume of 5 mL/kg or intravenously (iv) at a volume of 1 mL/kg. […] Following recovery from the anesthesia (recovery of the righting reflex), a 5 min observation period was allocated per study and the amount of time gerbils spent tapping their hind paws was measured.

The test system of data set [2] is rodent model of TBI. Put plainly: BBB permeability after TBI, Evan's blue extravasation. It is filed as in vivo, Sprague Dawley rats. The note with it: rat TBI.
From the text: (§1) Injury was induced in halothane-anesthetized (ProVet) male Sprague Dawley rats (400 ± 20 g) using acceleration-induced impact TBI [29, 93]. This model involves impacting a 10 mm diameter, 3 mm thick stainless steel disc fixed centrally to the exposed skull between the lambda and bregma with an accelerating impactor. The impactor was a 450 g brass weight dropped from a height of 2 m. […] All animals were fed and watered ad libitum before the induction of injury. During both surgery and the immediate recovery phase, rat rectal temperature was maintained using a thermostatically controlled heating pad. Immediately after injury, animals were manually ventilated until stable respiration was restored, usually in <5 min. After injury, all wounds were sutured. Blood pressure was monitored, both before and after injury, using a femoral arterial line.
The optimal dose of the NK1 receptor antagonist was determined from the level of BBB permeability using EB dye extravasation as the BBB marker [94, 95]. Briefly, EUC-001 was administered intravenously 30 min after TBI at doses ranging between 0.03 and 10 mg/kg in six steps (n = 3 per group). […] The supernatants were measured at 610 nm for absorbance of EB using a spectrophotometer (Cole-Parmer, Vernon Hills, IL, USA). Evans blue is expressed as mg/mg of the brain tissue against a standard curve.
Data set [3] concerns rodent model of TBI. In words: Motor function after TBI, rotarod test. It is filed as in vivo, Sprague Dawley rats. The note with it: rat TBI, 10 mg/kg 30 min post-injury, 10 days. For orientation: The rotarod test checks motor coordination on a turning rod.
From the text: The maximum duration of the task was 120 s.
as §1
Motor and cognitive outcomes in animals (n = 6 per group) were assessed using the rotarod and Barnes maze, respectively, as described in detail elsewhere [64]. The rotarod consists of a motorized rotating assembly of 18 rods (1 mm in diameter) upon which the animals were placed. The rotational speed of the device was increased from 0 to 30 r.p.m. and the duration (in seconds) when the animals either completed the task, fell from the rods, or gripped the rods and spun for two consecutive revolutions rather than walking actively was recorded as the rotarod score. […] After activating the bright lights and aversive auditory stimulus, the latency (in seconds) for the animal to locate and enter the escape tunnel was recorded. All animals were pretrained on both functional outcome tests twice per day over 5 days before injury to establish a normal, uninjured baseline.
The target of the next data set is NK1R (Homo sapiens, UniProt P25103). Put plainly: In vitro functional assay, free Ca2+ concentration in U373MG cells endogenously expressing NK1R. The class given is cell-based. The arrangement: which endogenously express the NK1R; endogenous in cells; host or cells: U373MG human glioblastoma astrocytoma cells (ATCC). As for the experimental part:
In vitro functional assays were performed by assessing changes in free Ca^2+ ion concentration in human glioblastoma (U373MG) cells, which endogenously express the NK1R. Agonist activity of EUC-001 is expressed as a percentage of the agonist response induced by the selective NK1R agonist [Sar^9, Met(O2)^11]-substance P (100 nM; Figure 2A), whilst antagonist activity is expressed as a percentage change in the response induced by 3 nM [Sar^9, Met(O2)^11]-SP (Figure 2B).
Human glioblastoma astrocytoma (U373MG) cells (ATCC) were used for in vitro function studies involving intracellular calcium measurements. […] Intracellular calcium concentrations were determined by using the calcium chelating agent fura-2 (Molecular Probes, Waltham, MA, USA). Aliquots of fura-2-loaded cells were subject to agonist stimulation and fluorescence emission was recorded using an MS-5 spectrophotometer (Perkin Elmer, Shelton, CT, USA). Loading of cells, fluorescence monitoring, calibration procedures, and other experimental details were as previously described.
For agonist activity, results are expressed as a percentage of the control agonist response induced by the selective NK1R agonist [Sar^9, Met(O2)^11]-substance P (100 nM) for a range of concentrations of EUC-001. […]

Values after ≈ are worked out from the molar mass of the structure shown. “Also recorded” adds a separate entry of the source. Where two headings read alike, the source gives them in different places.

Results on one molecule are retold here after PMC10970734, “Identification of an Intravenous Injectable NK1 Receptor Antagonist for Use in Traumatic Brain Injury” (International Journal of Molecular Sciences, 2024).

NK1R, sequence (P25103 whole entry): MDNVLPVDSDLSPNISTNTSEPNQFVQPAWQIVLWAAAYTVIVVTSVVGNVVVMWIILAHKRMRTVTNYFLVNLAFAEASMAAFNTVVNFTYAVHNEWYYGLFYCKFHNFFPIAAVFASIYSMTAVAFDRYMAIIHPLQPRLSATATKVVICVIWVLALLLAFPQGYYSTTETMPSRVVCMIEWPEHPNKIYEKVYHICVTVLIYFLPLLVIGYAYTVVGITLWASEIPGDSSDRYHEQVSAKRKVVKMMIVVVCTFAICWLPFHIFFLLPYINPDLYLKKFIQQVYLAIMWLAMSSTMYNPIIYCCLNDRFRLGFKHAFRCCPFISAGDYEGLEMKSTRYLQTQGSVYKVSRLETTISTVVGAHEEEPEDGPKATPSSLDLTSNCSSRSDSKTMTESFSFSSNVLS

Turning to `Cc1ccccc1-c1cc(N2CCN(C)CC2)ncc1C(=O)N(C)Cc1cc(C(F)(F)F)cc(C(F)(F)F)c1` [EUC-001, N-(3,5-Bis-trifluoromethyl-benzyl)-N-methyl-6-(4-methyl-piperazine-1-yl)-4-o-tolyl-nicotinamide], the inhibition constant (Ki) in data set [1] amounted to 3400 nM. Further, the results for the solubility in “Aqueous solubility” (free base) and in “Aqueous solubility” (hydrochloride salt) were 500 µg/mL (≈ 908 µM) and 1500 µg/mL, respectively. Further, the ED50 at central NK1Rs (iv administration, icv GR73632, read-out: IC50 dose, inhibition of foot-tapping response) was found to be 0.68 mg/kg; at central NK1Rs (oral administration (po), icv GR73632 3 pmol/5 µL, read-out: IC50 dose, inhibition of foot-tapping response) it was 0.89 mg/kg. Besides, in the data set on rodent model of TBI [2] (10 mg/kg 30 min post-injury, tissues 5 h after injury), the “Evan's blue leakage relative to drug vehicle” value was “significant reduction”. Also, the “IC50, decrease in Evan's blue extravasation” value in the data set on rodent model of TBI [2] (bolus iv 30 min after injury, 0.03-10 mg/kg) was found to be 0.43 mg/kg. Further, the “Motor function, rotarod score” value in the data set on rodent model of TBI [3] was “much smaller decline in motor function”. Moreover, the “Agonist activity, percentage of response to 100 nM [Sar9, Met(O2)11]-substance P” value at NK1R was “did not exhibit any detectable agonist activity; also recorded: no agonist activity”. Moreover, the IC50 on NK1R (3 nM [Sar9, Met(O2)11]-SP, read-out: IC50, inhibition of [Sar9, Met(O2)11]-SP-mediated response) worked out at 0.69 nM.

In general, Ki refers to the dissociation constant of the complex between target and ligand, obtained from inhibition or displacement. For orientation: solubility means the dissolved amount per volume that the medium holds. The term IC50 denotes the midpoint of a concentration-inhibition curve.
